Data from PMC11820680, “Synthesis of (1,10-Phenanthroline-κ^2N,N′)(β^2-Methyl- and β^2-PhenylAlaninate-κ^2N,O)Copper(II) Nitrate Complexes and Their Antiproliferative Activity on MCF-7 and A549 Cancer Cell Lines” (Molecules, 2025).
Like-named read-outs stand apart in the source and are kept apart here.

Assays:
[1] = test system: A549, MCF-7, HEK293, and HaCaT cell cultures; assay: Nuclei staining with Hoechst 33258; format: cell-based
Text: Hoechst dyes are excited by UV light (~360 nm) and emit a broad spectrum of blue light with a maximum at 460 nm. Upon binding to DNA, they increase their fluorescence 30-fold, which ensures a good signal-to-noise ratio. This increase in fluorescence is due to the suppression of rotational relaxation and reduced hydration upon binding to DNA. These dyes are not intercalating; they bind to the minor groove of the DNA in the A-T rich regions. Hoechst dyes are often used to distinguish condensed pyknotic nuclei in apoptotic cells. Briefly, the Hoechst dye stock solution was prepared by dissolving the contents of one vial (100 mg) in 10 mL of deionized water to create a 10 mg/mL (16.23 mM) solution. Then, 5×10^5 cells/mL of A549, MCF-7, HEK293, and HaCaT cells were seeded in 24-well plates on round glass coverslips. Cell cultures were treated with the complexes 3 and 4 using the IC50 calculated previously. At 12 h, the coverslips were removed from the wells. Cells were fixed by adding 200 μL of 4% paraformaldehyde. Later, cells were incubated at 37 °C for 30 min and washed 2 times with PBS. Then, 200 μL Hoechst 33258 (1:1000) was added to the sample and protected from light following incubation at room temperature for 30 min. Subsequently, they were washed 2 times with PBS.

[2] = test system: A549, MCF-7, HaCaT and HEK293 cell lines; details: previously calculated value for the cell lines evaluated; cited from earlier work
HaCaT [3] = test system: HaCaT; design: method as in doi:10.1016/j.ica.2020.119542; details: value taken from previous work ref 16; cited from earlier work
HEK293 [4] = test system: HEK293; design: method as in doi:10.1016/j.ica.2020.119542; details: value taken from previous work ref 16; cited from earlier work
MCF-7 (breast cancer) [5] = test system: MCF-7 (breast cancer); design: method as in doi:10.1016/j.ica.2020.119542; details: value taken from previous work ref 16; cited from earlier work
A549 (lung cancer) [6] = test system: A549 (lung cancer); design: method as in doi:10.1016/j.ica.2020.119542; details: value taken from previous work ref 16; cited from earlier work
[7] = test system: A549, MCF-7, HEK293, and HaCaT cell cultures; assay: DNA fragmentation assay (agarose gel); format: cell-based
Text: DNA fragmentation is a characteristic process of apoptosis. During apoptosis, cell DNA is broken into fragments of specific sizes (multiples of 180–200 bp) due to the action of nucleases activated by effector caspases (caspase-3, caspase-7, and caspase-6). To visualize DNA fragmentation on agarose gels, cultures of MCF-7, A549, HEK293, and HaCaT cells treated with complexes 3 and 4 were harvested under the same conditions as the acridine orange/propidium iodide assay and their nuclei stained. Cell cultures were treated with complexes 3 and 4 using the IC50 calculated previously. Cultures were harvested and centrifuged at 12,000 rpm; pellets were washed twice with PBS and resuspended in lysis buffer (10 mM Tris-HCl (pH 7.4), 5 mM EDTA, 0.2% Triton X-100) with RNase and incubated for 1 h at 37 °C. […]. Proteinase K was then added and incubated for 2 h at 55 °C. Extraction was performed with phenol:chloroform:isoamyl. To precipitate DNA, 96% ethanol, 10 M ammonium acetate, and glycogen were added. Finally, the samples were resuspended in 1X Buffer TE and stored at −20 °C. DNA was electrophoretically separated on a 2% agarose gel with ethidium bromide and visualized by UV transillumination.

[8] = test system: A549, MCF-7, HEK293, and HaCaT cell cultures; assay: Apoptosis detection with annexin V FITC and propidium iodide; format: cell-based; details: at IC50, 12 h
Description: Annexin V detects apoptosis by binding to phosphatidylserine, which during this process is exposed in the outer layer of the cell membrane. Its conjugation with fluorochromes such as FITC allows visualization of this binding by epifluorescence microscopy in the green channel. The detection of apoptosis was determined with the annexin V kit conjugated with the fluorophore FITC (Thermo, cat. 88-8005-72) under the following protocol: 0.5 × 10^6 cells/mL of A549, MCF-7, HEK293, and HaCaT cells were seeded in 24-well plates on round glass coverslips treated with L-polylysine. […] Cultures were incubated for 12 h under standard culture conditions. Subsequently, the cells were washed with 500 μL of cold PBS and incubated for 5 min in a 1X solution of annexin-binding buffer. Next, 15 μL of annexin V conjugate and 5 μL of propidium iodide (PI) were added, and the mixture was incubated over 15 min at room temperature. After washing with 1X buffer, the cells were observed using an epifluorescence microscope (Nikon Eclipse E400). The red channel (TRITC) identified necrosis due to PI intercalation, while the green channel (FITC) detected apoptosis through binding of the phosphatidylserine–annexin V complex.

[9] = test system: A549, MCF-7, HEK293, and HaCaT cell cultures; assay: Acridine orange / propidium iodide staining, epifluorescence microscopy; format: cell-based
Text: The purpose of using acridine orange (AO) and propidium iodide (PI) is to take advantage of their introduction of viable cells (AO) and non-viable cells (AO/PI) by their intercalating ability in DNA of cells, which by excitation with a wavelength of 400 nm emit radiation of lower energy and longer wavelength (green and red light, respectively). This technique allows differentiating the distinct states in which a cell is found; AO is able to cross the cell membrane regardless of its membrane integrity, so the compound stains all cells, emitting green light and, in some cases, orange if it binds to RNA or where there is high lysosomal activity. PI penetrates the cell when its membrane is damaged by intercalating with higher affinity to DNA and emits red color, eclipsing the intensity caused by AO staining. Briefly, the protocol used for this technique was: 0.5×10^6 cells/mL of A549, MCF-7, HEK293, and HaCaT cells were seeded in 24-well plates on round glass coverslips. All cell cultures were treated with complexes 3 and 4 with the IC50 calculated previously. At 12 h, the coverslips were removed from the wells. Later, 5 μL of a 1:1 mixture of the dyes (50 μg/mL of AO and 100 μg/mL of PI) was added to 5 μL of sample and coverslips were flipped and placed on a slide for observation.

HaCaT [10] = details: 24 h, MTS
HEK293 [11] = details: HEK293, 24 h, MTS
MCF-7 (breast cancer) [12] = details: for IC50: MCF-7, 24 h, MTS; for Selectivity Index (SI): IC50(HaCaT)/IC50(MCF-7)
A549 (lung cancer) [13] = details: for IC50: A549, 24 h, MTS; for Selectivity Index (SI): IC50(HaCaT)/IC50(A549)
[14] = test system: A549, MCF-7, HaCaT and HEK293 cell lines; details: for IC50: all the cell lines tested; for increase in potency over cisplatin: considering the concentrations used to determine the IC50
[15] = complexes at IC50 of Table 5, 12 h

| Molecule | nuclear morphology, Hoechst 33258 ([1]; cisplatin 25 µM) | IC50 [2] | IC50 (HaCaT [3]) | IC50 (HEK293 [4]) | IC50 (MCF-7 (breast cancer) [5]) | IC50 (A549 (lung cancer) [6]) | DNA fragmentation pattern ([7]; cisplatin 25 µM) | annexin V-FITC / PI fluorescence [8] | morphology, AO/PI staining ([9]; cisplatin 25 µM) | IC50 (HaCaT [10]) | IC50 (HEK293 [11]) | IC50 (MCF-7 (breast cancer) [12]) | IC50 (A549 (lung cancer) [13]) | nuclear morphology, Hoechst 33258 [1, 15] | IC50 [14] | increase in potency over cisplatin [14] | Selectivity Index (SI) (MCF-7 (breast cancer) [12]) | DNA fragmentation pattern ([7]; complexes at IC50 of Table 5) | Selectivity Index (SI) (A549 (lung cancer) [13]) | morphology, AO/PI staining ([9]; complexes at IC50, 12 h) |
| --- | --- | --- | --- | --- | --- | --- | --- | --- | --- | --- | --- | --- | --- | --- | --- | --- | --- | --- | --- | --- |
| N.N.[Cl][Pt][Cl] [Cisplatin, cis-[PtCl2(NH3)2]] | evident change in nuclear structure | 25 µM | 25 µM | 25 µM | 25 µM | 25 µM | DNA fragmentation is observed | intense signal in the green channel (FITC) | show red nuclei, indicating a decrease in cell viability | – | – | – | – | – | – | – | – | – | – | – |
| O=[N+]([O-])[O-].O=[N+]([O-])[O-].[Cu+2] [Cu(NO3)2, Copper(II) nitrate] | – | – | – | – | – | – | – | – | – | 55.5 ± 2.03 µM | 47.6 ± 3.22 µM | 70.2 ± 2.03 µM | 47.8 ± 3.22 µM | – | – | – | – | – | – | – |
| Aqua(1,10-phenanthroline-κ^2N,N’)(β^2-methylalaninate-κ^2N,O)copper(II) nitrate [Compound 3] | – | – | – | – | – | – | – | significant induction of apoptosis | – | 0.21 ± 0.02 µM | 0.19 ± 0.01 µM | 0.35 ± 0.02 µM | 0.24 ± 0.02 µM | decrease in the size of the nuclei, irreversible chromatin condensation, and nuclear fragmentation | < 1 µM | 83 times | 0.6 | specific indication of an apoptotic process | 0.875 | induced morphological features that, in principle, indicate a cell death process |
| ethanol(1,10-phenanthroline-κ^2N,N’)(β^2-phenylalaninate-κ^2N,O)copper(II) nitrate [Compound 4] | – | – | – | – | – | – | – | significant induction of apoptosis | – | 0.35 ± 0.09 µM | 0.32 ± 0.02 µM | 0.4 ± 0.02 µM | 0.22 ± 0.05 µM | decrease in the size of the nuclei, irreversible chromatin condensation, and nuclear fragmentation | < 1 µM | 83 times | 0.87 | specific indication of an apoptotic process | 1.59 | induced morphological features that, in principle, indicate a cell death process |
